Experimental data from patent US11059795B2, “Androgen receptor modulators and methods for their use” (ESSA Pharma, Inc., priority 2018, dated 2021).

Tests used:
[1] = Hepatocyte stability assay, mouse hepatocytes; format: in vitro ADME; settings: cryopreserved hepatocytes; for hepatocyte CLint at 1 μM: mouse, 1 μM compound, 0.5 million cells/mL, 37° C., read-out: MH +/− NADPH: Clint (μL/min/million cells); for half-life at 1 μM: read-out: Hepatocytes T½ (min) Mouse
How it was run: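 Cryopreserved rat, human or mouse hepatocytes at 0.5 million cells/mL in DMEM with 1 μM compound, 37° C, sampled at 0, 60, 120 and 180 min and quenched with acetonitrile/formic acid. Parent loss vs 0-min by LC/MS/MS gave t½, and Clint = 0.693/t½ × mL incubation/million cells.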

[2] = molecular target: LBD of estrogen receptor-β (ERβ) fused to DBD of GAL4 (Homo sapiens, UniProt Q92731); experiment: LBD-expressing reporter assay (GeneBLAzer), ERβ LBD; format: cell-based; settings: inhibition of maximal activity attained with agonist; read-out: Steroid Receptor LBD IC50 (μM) ERβ
From the text: To assess if the representative compounds (Compounds A13, A28, A38, A74, A93, and A109) compete with ligand (agonist) for the ligand-binding domain (LBD) of steroid hormone receptors (which would be off-target), the GeneBLAzer assay was employed (Thermo Fisher). This assay uses cells that stably express a chimera fusion protein comprising the LBD of a steroid hormone receptor fused to the DNA-binding domain (DBD) of GAL4 along with beta-lactamase reporter under transcriptional control of an upstream activator sequence (UAS). When agonist binds to the LBD of the GAL4 (DBD)-steroid hormone (LBD) chimera fusion protein, the protein binds to the UAS, resulting in expression of beta-lactamase. LBDs of androgen receptor (AR), progesterone receptor-beta (PRβ), glucocorticoid receptor (GR), estrogen receptor-α (ERα), and estrogen receptor-β (ERβ) were tested and IC50s calculated for inhibiting maximal activity attained with agonist.

[3] = Hepatocyte stability assay, rat hepatocytes; format: in vitro ADME; settings: cryopreserved hepatocytes, read-out: Hepatocytes T½ (min) Rat
From the text: The […] of in vitro intrinsic clearance (Clint) for drug candidates in the early discovery stage is common practice in the pharmaceutical industry. The Clint values of drug candidates can help to confirm whether metabolism is the main clearance pathway when it is compared with the total body clearance in vivo. Hepatocytes are among the routinely used in vitro systems for measuring clearance. Hepatocytes have been reported to retain most of the phase I and phase II metabolic activities, and therefore, it is a useful tool to estimate the intrinsic clearance for potential drug candidates.
Metabolic stability of testing compound were be evaluated using human and mouse hepatocytes and can also be use rat, mouse, or other animal hepatocytes to predict intrinsic clearance. Cryopreserved hepatocytes were removed from the liquid nitrogen tank and thawed in a 37° C. water bath. As soon as the cells pulled away from the vial wall, they were decanted into 48 ml of warm HT medium. Cells were centrifuged for four minutes at 420 rpm (50 g). After removing the supernatant, pellet was re-suspended in warm DMEM medium. Cell density was counted by a hemacytometer.
The assay was carried out in 96-well microtiter plates. Compounds were incubated for 0, 60, 120, and 180 minutes at 37° C. with hepatocytes. Reaction mixtures (50 μL) contained a final concentration of 1 μM test compound, 0.5 million cells/mL hepatocytes in the DMEM medium. At each of the time points (for example, 0, 1, 2, and 3 hours), 200 μL of quench solution (100% acetonitrile with 0.1% formic acid) with internal standard was transferred to each well. Midazolam was included as a positive control to verify assay performance. Plates were sealed and centrifuged at 4° C. for 15 minutes at 4000 rpm. The supernatant is transferred to fresh plates for LC/MS/MS analysis.
Summarized conditions (customizable): [Compound]=[…], Positive control: midazolam and/or naloxone, [Hepatocyte]=0.5 million cells/Ml, time=0, 60, 120, and 180 min, t=37° C.
(§1) All samples were analyzed on LC/MS/MS using an AB Sciex API 4000 instrument, coupled to a Shimadzu LC-20AD LC Pump system. Analytical samples were separated using a Waters Atlantis T3 dC18 reverse phase HPLC column (20 mm×2.1 mm) at a flow rate of 0.5 mL/min. The mobile phase consisted of 0.1% formic acid in water (solvent A) and 0.1% formic acid in 100% acetonitrile (solvent B).
The extent of metabolism was calculated as the disappearance of the test compound, compared to the 0-min control reaction incubations. Initial rates were calculated for the compound concentration and used to determine t½ values and subsequently, the intrinsic clearance, Clint. Clint=(0.693)(1/t½(min))(mL incubation/million cells)

[4] = Microsomal stability assay, rat liver microsomes; format: in vitro ADME; settings: pH 7.4, read-out: Liver microsome T½ (min) Rat
Procedure: Microsomal stability assay is a widely used in vitro model to characterize the metabolic conversion by phase I enzymes, such as cytochrome P450 (CYP) enzymes. Since metabolism is known to be highly variable in different species, microsomal stability assay is commonly run in multiple species. Metabolic stability of testing compound can be evaluated using human, rat, mouse, or other animal liver or intestine microsomes to predict intrinsic clearance.
The assay was carried out in 96-well microtiter plates at 37° C. Reaction mixtures (25 μL) contained a final concentration of 1 μM test compound, 0.5 mg/mL liver microsomes protein, and 1 mM NADPH and/or 1 mM UDPGA (with alamethicin) in 100 mM potassium phosphate, pH 7.4 buffer with 3 mM MgCl2. The incubation was done with N=1, but duplicate incubation at each time point can be prepared if necessary. At each of the time points (for example, 0, 15, 30, and 60 minutes), 150 μL of quench solution (100% acetonitrile with 0.1% formic acid) with internal standard was transferred to each well. Besides the zero minute controls, mixtures containing the same components except the NADPH can also be prepared as the negative control. Verapamil was included as a positive control to verify assay performance. Plates were sealed, vortexed, and centrifuged at 4° C. for 15 minutes at 4000 rpm. The supernatant is transferred to fresh plates for LC/MS/MS analysis.
Summarized conditions: [Compound]=[…], [LM]=0.5 mg/mL, [NADPH]=1 mM and/or [UDPGA]=1 mM, Buffer=100 mM Potassium Phosphate, pH 7.4 with 3 mM MgCl2, Time=0, 15, 30, and 60 min, and Temperature=37° C.
as §1
The extent of metabolism is calculated as the disappearance of the test compound, compared to the 0-min time incubation. Initial rates are calculated for the compound concentration and used to determine half-life (t½) values and subsequently, the intrinsic clearance (Clint). Clint=(0.693)(1/t½ (min))(g of liver/kg of body weight)(mL incubation/mg of microsomal protein)(45 mg of microsomal protein/g of liver weight)

LBD of estrogen receptor-β (ERβ) fused to DBD of GAL4, sequence (Q92731 264-498 limits assumed): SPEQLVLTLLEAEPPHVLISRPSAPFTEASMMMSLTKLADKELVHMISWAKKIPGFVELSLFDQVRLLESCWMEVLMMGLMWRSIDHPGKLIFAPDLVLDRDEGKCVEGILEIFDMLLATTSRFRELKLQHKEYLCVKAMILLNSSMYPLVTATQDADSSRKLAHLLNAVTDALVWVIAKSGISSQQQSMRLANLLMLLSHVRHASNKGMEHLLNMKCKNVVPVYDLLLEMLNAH

Structure (SMILES) | hepatocyte CLint at 1 μM [1] | IC50 [2] | half-life at 1 μM [3] | half-life at 1 μM [4] | half-life at 1 μM [1]
C[C@H](Oc1ccc(C(C)(C)c2cc(Cl)c(OCCCl)c(C#N)c2)cc1)c1ccnc(NS(C)(=O)=O)n1 (single isomer, unassigned) [Compound A170] | < 4 µL/min/1e6 cells |  |  |  | 
CC(C)(c1ccc(OCc2ocnc2S(C)(=O)=O)cc1)c1cc(Cl)c(OCCCl)c(Cl)c1 [Compound A13, 5-((4-(2-(3,5-dichloro-4-(2-chloroethoxy)phenyl)propan-2-yl)phenoxy)methyl)-4-(methylsulfonyl)oxazole] | 4 to 18 µL/min/1e6 cells | > 10 µM | 75 min | 64 min | 203 min
CC(C)(c1ccc(OCc2ocnc2S(C)(=O)=O)cc1)c1cc(Cl)c(OCCCl)c(C#N)c1 [Compound A28, 3-chloro-2-(2-chloroethoxy)-5-(2-(4-((4-(methylsulfonyl)oxazol-5-yl)methoxy)phenyl)propan-2-yl)benzonitrile] | 4 to 18 µL/min/1e6 cells | > 10 µM | 31 min | 23 min | 86 min
CC(C)(c1ccc(OCc2coc(NS(C)(=O)=O)n2)cc1)c1cc(Cl)c(OCCCl)c(Cl)c1 [Compound A38, N-(4-((4-(2-(3,5-dichloro-4-(2-chloroethoxy)phenyl)propan-2-yl)phenoxy)methyl)oxazol-2-yl)methanesulfonamide] | < 4 µL/min/1e6 cells | > 10 µM | 56 min | 12 min | > 360 min
CC(C)(c1ccc(OCc2ccnc(NS(C)(=O)=O)n2)cc1)c1cc(Cl)c(OCCCl)c(Cl)c1 [Compound A74, N-(4-((4-(2-(3,5-dichloro-4-(2-chloroethoxy)phenyl)propan-2-yl)phenoxy)methyl)pyrimidin-2-yl)methanesulfonamide] |  | > 10 µM | > 360 min | > 120 min | 
CC(C)(c1ccc(OCc2ncc(S(C)(=O)=O)s2)cc1)c1cc(Cl)c(OCCCl)c(C#N)c1 [Compound A93, 3-chloro-2-(2-chloroethoxy)-5-(2-(4-((5-(methylsulfonyl)thiazol-2-yl)methoxy)phenyl)propan-2-yl)benzonitrile] | < 4 µL/min/1e6 cells | > 10 µM | 94 min | 83 min | > 360 min
CC(C)(c1ccc(OCc2ccnc(NS(C)(=O)=O)n2)cc1)c1cc(Cl)c(OCCCl)c(C#N)c1 [Compound A109, N-(4-((4-(2-(3-chloro-4-(2-chloroethoxy)-5-cyanophenyl)propan-2-yl)phenoxy)methyl)pyrimidin-2-yl)methanesulfonamide] | < 4 µL/min/1e6 cells | > 10 µM | > 360 min | > 120 min | > 360 min
Cc1cnc(NS(C)(=O)=O)nc1COc1ccc(C(C)(C)c2cc(Cl)c(OCCCl)c(C#N)c2)cc1 [Compound A122, N-(4-((4-(2-(3-Chloro-4-(2-chloroethoxy)-5-cyanophenyl)propan-2-yl)phenoxy)methyl)-5-methylpyrimidin-2-yl)methanesulfonamide] | 4 to 18 µL/min/1e6 cells |  |  |  | 
CCS(=O)(=O)Nc1nc(COc2ccc(C(C)(C)c3cc(Cl)c(OCCCl)c(C#N)c3)cc2)co1 [Compound A126] | < 4 µL/min/1e6 cells |  |  |  | 
CCS(=O)(=O)Nc1nccc(COc2ccc(C(C)(C)c3cc(Cl)c(OCCCl)c(C#N)c3)cc2)n1 [Compound A131] | < 4 µL/min/1e6 cells |  |  |  | 
CC(C)(c1ccc(OCc2nc(S(C)(=O)=O)cs2)cc1)c1cc(Cl)c(OCCCl)c(C#N)c1 [Compound A136, 3-Chloro-2-(2-chloroethoxy)-5-(2-(4-((4-(methylsulfonyl)thiazol-2-yl)methoxy)phenyl)propan-2-yl)benzonitrile] | 4 to 18 µL/min/1e6 cells |  |  |  | 
CC(C)(c1ccc(OC[C@H](O)CNS(C)(=O)=O)cc1)c1cc(Cl)c(OC[C@H](O)CCl)c(Cl)c1 [X, reference compound] |  | 7.37 µM |  |  | 33 min
